How the values were obtained:
[1] = Cytotoxicity in HepG2 cells, Resazurin viability assay; details: human, HepG2 cells, HepG2 4 days CC50 (μM), incubated for 4 days, Resazurin assay
HBV [2] = assay: Anti-HBV activity, HepG2.117 inducibly HBV producing cell line (Tet-off), intracellular HBV DNA by realtime PCR; type: cell-based; details: Hepatitis B virus, HepG2.117, 72 h, HepG2.117 cells, 3 days of treatment, intracellular HBV DNA; read-out: HepG2 117 EC50
HBV [3] = assay: Anti-HBV activity, HepG2.2.15 stable transfected cell line, HBV DNA from secreted virions by realtime PCR; type: cell-based; details: Hepatitis B virus, HepG2.2.15, 144 h, HepG2.2.15 cells, 6 days of treatment, HBV DNA from secreted virions; read-out: HepG2 2.15 EC50

Compound | CC50 at 4 days [1] [µM] | EC50 (HBV [2]) [nM] | EC50 (HBV [3]) [nM]
C[C@H](NS(=O)(=O)c1cc(C(=O)Nc2ccc(F)c(F)c2)n(C)c1)C(F)(F)F [Compound 93, N-(3,4-Difluorophenyl)-1-methyl-4-{[(1S)-2,2,2-trifluoro-1-methyl-ethyl]sulfamoyl}-1H-pyrrole-2-carboxamide] | > 25 | 30 | 30
C[C@@H](NS(=O)(=O)c1cc(C(=O)Nc2cccc(C(F)(F)F)c2F)n(C)c1)C(F)(F)F [Compound 159, N-[2-Fluoro-3-(trifluoromethyl)phenyl]-1-methyl-4-{[(1R)-2,2,2-trifluoro-1-methylethyl]sulfamoyl}-1H-pyrrole-2-carboxamide] | > 25 | 810 | 90
Cn1cc(S(=O)(=O)NC(C)(C)C)cc1C(=O)Nc1ccc(F)c(Cl)c1F [Compound 194, 4-(tert-Butylsulfamoyl)-N-(3-chloro-2,4-difluorophenyl)-1-methyl-1H-pyrrole-2-carboxamide] | > 25 | 50 | 90
Cn1cc(S(=O)(=O)NC(C)(C)C)cc1C(=O)Nc1cc(F)c(F)c(Cl)c1 [Compound 58, 4-(tert-butylsulfamoyl)-N-(3-chloro-4,5-difluoro-phenyl)-1-methyl-pyrrole-2-carboxamide] | > 25 | 60 | 90
Cn1cc(S(=O)(=O)NC2(C(F)(F)F)CCOC2)cc1C(=O)Nc1ccc(F)c(Cl)c1F (stereo not drawn) [Compound 266, N-(3-chloro-2,4-difluoro-phenyl)-1-methyl-4-{[3-(trifluoromethyl)-tetrahydrofuran-3-yl]sulfamoyl}-1H-pyrrole-2-carboxamide] | > 25 | 30 | 20
C[C@H](NS(=O)(=O)c1cn(C)c(C(=O)Nc2ccc(F)c(C#N)c2)c1F)C(F)(F)F [Compound 188, N-(3-Cyano-4-fluorophenyl)-3-fluoro-1-methyl-4-{[(1S)-2,2,2-trifluoro-1-methylethyl]sulfamoyl}-1H-pyrrole-2-carboxamide] | > 25 | 30 | 40
C[C@@H](NS(=O)(=O)c1cn(C)c(C(=O)Nc2ccc(F)c(F)c2F)c1F)C(F)(F)F [Compound 183, 3-Fluoro-1-methyl-4-{[(1R)-2,2,2-trifluoro-1-methylethyl]sulfamoyl}-N-(2,3,4-trifluorophenyl)-1H-pyrrole-2-carboxamide] | > 25 | 10 | 20
C[C@H](CO)NS(=O)(=O)c1cc(C(=O)Nc2ccc(F)c(C(F)F)c2)n(C)c1 [Compound 40, N-[3-(difluoromethyl)-4-fluoro-phenyl]-4-[[(1R)-2-hydroxy-1-methyl-ethyl]sulfamoyl]-1-methyl-pyrrole-2-carboxamide] | > 25 | 120 | 200
Cn1cc(S(=O)(=O)NC(C)(C)C)cc1C(=O)Nc1ccc(F)c(Cl)c1 [Compound 195, 4-(tert-Butylsulfamoyl)-N-(3-chloro-4-fluorophenyl)-1-methyl-1H-pyrrole-2-carboxamide] | > 25 | 40 | 40
C[C@@H](NS(=O)(=O)c1cn(C)c(C(=O)Nc2ccc(F)cc2C#N)c1Cl)C(F)(F)F [Compound 273, 3-chloro-N-(2-cyano-4-fluoro-phenyl)-1-methyl-4-[[(1R)-2,2,2-trifluoro-1-methyl-ethyl]sulfamoyl]pyrrole-2-carboxamide] | > 25 | 700 | 420
[2H]C([2H])([2H])C(NS(=O)(=O)c1cc(C(=O)Nc2ccc(F)c(C)c2)n(C)c1)(C([2H])([2H])[2H])C([2H])([2H])[2H] [Compound 69, N-(4-fluoro-3-methyl-phenyl)-1-methyl-4-[[2,2,2-trideuterio-1,1-bis(trideuteriomethyl)ethyl]sulfamoyl]pyrrole-2-carboxamide] | > 25 | 70 | 30
Cn1cc(S(=O)(=O)NCC(F)F)cc1C(=O)Nc1ccc(F)c(C#N)c1 [Compound 126, N-(3-Cyano-4-fluorophenyl)-4-[(2,2-difluoroethyl)sulfamoyl]-1-methyl-1H-pyrrole-2-carboxamide] | > 25 | 230 | 590
Cc1cc(NC(=O)c2cc(S(=O)(=O)NCC3(C)COC3)cn2C)ccc1F [Compound 7, N-(4-fluoro-3-methyl-phenyl)-1-methyl-4-[(3-methyloxetan-3-yl)methylsulfamoyl]pyrrole-2-carboxamide] | > 25 | 100 | 120
CC[C@@H](NS(=O)(=O)c1cc(C(=O)Nc2ccc(F)c(C#N)c2)n(C)c1)C(F)(F)F [Compound 240, N-(3-Cyano-4-fluorophenyl)-1-methyl-4-{[(1R)-1-(trifluoromethyl)-propyl]sulfamoyl}-1H-pyrrole-2-carboxamide] | > 25 | 50 | 20
CC(C)NS(=O)(=O)c1cc(C(=O)Nc2cc(F)c(F)c(Br)c2)n(C)c1 [Compound 46, N-(3-bromo-4,5-difluoro-phenyl)-4-(isopropylsulfamoyl)-1-methyl-pyrrole-2-carboxamide] | > 25 | 170 | 120
Cn1cc(S(=O)(=O)NC(C)(C)C)c(Cl)c1C(=O)Nc1ccc(F)c(C#N)c1 [Compound 226, 4-(tert-Butylsulfamoyl)-3-chloro-N-(3-cyano-4-fluorophenyl)-1-methyl-1H-pyrrole-2-carboxamide] | > 25 | 210 | 190
Cc1c(S(=O)(=O)N[C@H](C)C(F)(F)F)cn(C)c1C(=O)Nc1ccc(F)c(Cl)c1F [Compound 210, N-(3-Chloro-2,4-difluorophenyl)-1,3-dimethyl-4-{[(1R)-2,2,2-trifluoro-1-methylethyl]sulfamoyl}-1H-pyrrole-2-carboxamide] | > 25 | 50 | 50
C[C@H](CO)NS(=O)(=O)c1cc(C(=O)Nc2ccc(F)c(C(F)(F)F)c2)n(C)c1 [Compound 41, N-[4-fluoro-3-(trifluoromethyl)phenyl]-4-[[(1R)-2-hydroxy-1-methyl-ethyl]sulfamoyl]-1-methyl-pyrrole-2-carboxamide] | > 25 | 330 | 520
Cn1cc(S(=O)(=O)NC2(C)COC2)cc1C(=O)Nc1ccc(F)c(C(C)(F)F)c1 [Compound 161, N-[3-(1,1-Difluoroethyl)-4-fluorophenyl]-1-methyl-4-[(3-methyloxetan-3-yl)sulfamoyl]-1H-pyrrole-2-carboxamide] | > 25 | 910 | > 1000
Cn1cc(S(=O)(=O)NC2(C)COC2)c(F)c1C(=O)Nc1cccc(Br)c1 [Compound 251, N-(3-Bromophenyl)-3-fluoro-1-methyl-4-[(3-methyloxetan-3-yl)sulfamoyl]-1H-pyrrole-2-carboxamide] | > 25 | 60 | 10
C[C@H](NS(=O)(=O)c1cc(C(=O)Nc2cccc(C#N)c2)n(C)c1)C(F)(F)F [Compound 197, N-(3-Cyanophenyl)-1-methyl-4-{[(1S)-2,2,2-trifluoro-1-methylethyl]-sulfamoyl}-1H-pyrrole-2-carboxamide] | > 25 | 90 | 120

Source: patent publication US9884818B2, “Sulphamoylpyrrolamide derivatives and the use thereof as medicaments for the treatment of hepatitis B” (Janssen Sciences Ireland UC, priority 2013, dated 2018)
